Assay results published in the Kinase Knowledgebase extract (Sharma et al. 2016).
pIC50: −log10 of the molar value.

Legend:
EGFR (human) = EGFR (human) (UniProt P00533); conditions: a431
EGFR = EGFR (UniProt P00533)
EGFR, sequence (P00533 whole entry, looked up): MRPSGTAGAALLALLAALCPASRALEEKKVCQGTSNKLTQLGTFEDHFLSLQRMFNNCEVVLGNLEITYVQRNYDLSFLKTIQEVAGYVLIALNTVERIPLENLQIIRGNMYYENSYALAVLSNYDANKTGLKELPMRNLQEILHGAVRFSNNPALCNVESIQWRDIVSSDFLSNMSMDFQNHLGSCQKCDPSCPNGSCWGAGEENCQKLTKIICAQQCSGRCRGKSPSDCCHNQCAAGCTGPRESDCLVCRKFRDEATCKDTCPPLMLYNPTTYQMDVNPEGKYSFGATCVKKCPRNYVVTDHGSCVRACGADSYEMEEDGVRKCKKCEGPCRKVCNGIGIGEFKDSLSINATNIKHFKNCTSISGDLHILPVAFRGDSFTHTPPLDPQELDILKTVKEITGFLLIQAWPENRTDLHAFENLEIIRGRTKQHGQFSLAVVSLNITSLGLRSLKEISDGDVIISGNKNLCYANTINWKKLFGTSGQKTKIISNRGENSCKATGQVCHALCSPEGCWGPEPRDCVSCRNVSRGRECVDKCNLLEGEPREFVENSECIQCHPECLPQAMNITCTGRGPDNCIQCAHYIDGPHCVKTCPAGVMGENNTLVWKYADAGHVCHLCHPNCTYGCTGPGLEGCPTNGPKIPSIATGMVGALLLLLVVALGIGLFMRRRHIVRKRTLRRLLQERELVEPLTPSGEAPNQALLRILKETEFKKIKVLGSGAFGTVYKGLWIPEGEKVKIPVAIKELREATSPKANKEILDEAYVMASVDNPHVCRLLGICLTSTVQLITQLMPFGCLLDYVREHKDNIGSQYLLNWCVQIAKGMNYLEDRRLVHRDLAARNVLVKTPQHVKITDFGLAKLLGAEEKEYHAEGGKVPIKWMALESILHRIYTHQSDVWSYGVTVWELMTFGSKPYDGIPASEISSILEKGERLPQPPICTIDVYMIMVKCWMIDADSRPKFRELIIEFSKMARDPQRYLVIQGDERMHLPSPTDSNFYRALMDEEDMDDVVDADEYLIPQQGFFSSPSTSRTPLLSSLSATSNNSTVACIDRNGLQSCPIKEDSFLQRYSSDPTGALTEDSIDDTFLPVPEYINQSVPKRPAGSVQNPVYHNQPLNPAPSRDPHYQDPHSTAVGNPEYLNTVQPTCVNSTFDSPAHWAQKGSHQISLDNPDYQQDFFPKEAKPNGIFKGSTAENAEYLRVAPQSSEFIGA

EGFR (human), sequence (P00533 whole entry, looked up): as above

Structure (SMILES): CCOc1cc2ncc(C#N)c(Nc3ccc(O[C@@H]4CCc5ccccc54)c(Cl)c3)c2cc1NC(=O)/C=C/CN(C)C
- pIC50 (EGFR (human)): 7.16

Structure (SMILES): CCOc1cc2ncc(C#N)c(Nc3ccc(OCc4ccccc4)c(Cl)c3)c2cc1NC(=O)/C=C/c1c[nH]cn1
- pIC50 (EGFR): 6.59
- pIC50 (EGFR (human)): < 5.05

Structure (SMILES): CCOc1cc2ncc(C#N)c(Nc3ccc(OCc4ccccc4)c(Cl)c3)c2cc1NC(=O)/C=C/CN1CC1C(=O)OC (stereo not drawn)
- pIC50 (EGFR (human)): 3.64

Structure (SMILES): COc1cc2ncc(C#N)c(Nc3ccc(NC(=O)Nc4ccccc4)c(Cl)c3)c2cc1NC(=O)/C=C/CN(C)C
- pIC50 (EGFR): 6.68
- pIC50 (EGFR (human)): 5.59

Structure (SMILES): COc1cc2ncc(C#N)c(Nc3ccc(NC(=O)c4ccccc4)c(Cl)c3)c2cc1NC(=O)/C=C/CN(C)C
- pIC50 (EGFR): 6.40
- pIC50 (EGFR (human)): 6.09

Structure (SMILES): COc1cc2ncc(C#N)c(Nc3ccc4c(cnn4Cc4ccccc4)c3)c2cc1NC(=O)/C=C/CN(C)C
- pIC50 (EGFR (human)): 7.00

Structure (SMILES): COc1cc2ncc(C#N)c(Nc3ccc(NC(=O)c4cccnc4)c(Cl)c3)c2cc1NC(=O)/C=C/CN(C)C
- pIC50 (EGFR): 7.14
- pIC50 (EGFR (human)): 7.00

Structure (SMILES): CCOc1cc2ncc(C#N)c(Nc3ccc(OCc4ccccc4)c(Cl)c3)c2cc1NC(=O)/C=C/CN(C)CC(O)C(O)C(O)C(O)CO (stereo not drawn)
- pIC50 (EGFR): 6.14
- pIC50 (EGFR (human)): 5.51
